What was measured:
healthy subjects [1] = experiment: Example 1: heart rate and blood pressure; type: in vivo, human
From the text: Heart rate, conjunctiva congestion, subjective ratings, and a battery of computerized cognitive tests were used to evaluate pharmacodynamics. FIG. 11a-b are plots of mean baseline adjusted heart rate for Groups I-III. FIG. 12a-c show plots of placebo corrected diastolic blood pressure. […] FIG. 14a-b present comparisons of Active versus Placebo alertness and a plot of change in self-rated alertness. FIG. 15a-b show comparisons of Active v. Placebo for calmness and a plot of change in self-rated calmness.
For Examples 1 and 2: Heart rate was obtained from the blood pressure recordings or using telemetry.
(§1) Absolute values of heart rate and conjunctive congestion scores were used to calculate changes from baseline.
For Example 1: All pharmacodynamic variables were evaluated using descriptive statistics for all study evaluations.

healthy subjects [2] = experiment: Example 1: subjective drug ratings and ARCI; type: in vivo, human
From the text: (§2) The subject responded to each of three questions on a scale of 0 to 100 with 0 meaning no effect/not at all and 100 meaning maximum/very much:
How much of a drug effect or high do you feel?
How much do you like the drug?
How much do you dislike the drug?
(§3) The ARCI is a true/false questionnaire developed to specifically measure the subjective effects of drugs which have diverse pharmacological actions. The […] (PCAG), morphine-benzedrine, and lysergic acid diethylamide subgroup scales were used to assess sedation, euphoria, and dysphoria. Questions from the marijuana subscale were also included.
Subjective drug ratings and cognitive measurement scores were presented as absolute values only with separate tables summarizing gender difference and age differences.

[3] = Example 1 single rising dose inhaled delta-9-THC study: plasma pharmacokinetics
Description: A randomized, double blind, placebo controlled, three way crossover, single rising dose human clinical study in two sequential groups (Groups I and II) of nine young healthy male subjects (18-45 years of age and body mass index (BMI) of 20-26 kg/m^2) of a metered dose inhalation composition according to one embodiment the present invention was conducted. Each subject received two ascending single doses of inhaled delta-9-THC and one single dose of inhaled placebo according to a three-way crossover balanced incomplete block design. The administered composition is detailed in Table 1. Composition I provides 0.3 mg per actuation, while Composition II provides 1.2 mg per actuation.
Each sequential dose level or period was separated by a washout period of two weeks, during which an interim safety and pharmacokinetic analysis was performed. A third group (Group III) of nine elderly healthy male and female subjects (65-80 years old and BMI 18-30 kg/m^2) was added after completion of the sixth study period to participate in a single treatment period. […] Five dose levels were evaluated: 0.3 mg, 1.2 mg, and 2.4 mg in Group I, 3.6 mg, 7.2 mg, and 9.6 mg in Group II, and 3.6 mg in Group III. Subjects were confined to the study center from the day prior to dosing until the 48 hour blood sample. Subjects returned to the center for 72, 96 and 120 hour pharmacokinetic samples. Various pharmacokinetic and pharmacodynamic measurements and sampling were taken according to the Assessment Flow Charts in FIG. 1 and FIG. 2. Safety was measured by monitoring adverse events, physical examination, clinical laboratory and pulmonary function tests, vital signs, 12 lead ECG, and telemetry.
Safety, pharmacokinetic and pharmacodynamic variables were estimated. Plasma concentrations of delta-9-THC (THC), 11-hydroxy-tetrahydrocanabinol (11-OH-THC) and delta-9-tetrahydrocannbinol-carboxylic acid (THC-COOH) were determined for pharmacokinetic analysis.
Whole blood samples were collected according to the assessment flowchart in EDTA tubes through venepuncture or indwelling catheter. Samples were immediately placed on ice and subsequently centrifuged within 30 minutes at 1,500 g for 10 minutes. Plasma was transferred into a 5 ml screw cap polypropylene tube, stoppered and stored at below minus 20° C. until transfer to the analytical laboratory for analysis. […] The measurement ranges were 0.05-30 ng/ml for delta-9-THC, 0.04-30 ng/ml for 11-OH-THC, and 0.25-10 ng/ml for THC-COOH.
Number of subjects, mean, standard deviation, coefficient variable (%) and geometric mean were calculated for all pharmacokinetic parameters.
For Example 1: A mixed ANOVA model with group and dose fixed effect and subject within group by dose as random effect was performed on the logarithms of the dose normalized pharmacokinetic parameters AUC, AUC0-t and Cmax. The overall treatment effect was tested by conventional F-test with Satterthwaites correction. Dose proportionality was tested using Helmert Contrasts and Reverse Helmert Contrasts. The within and between subject coefficient of variances were calculated from the estimated covariance parameters. Per dose level geometric means with 90% confidence interval were calculated for the dose-normalized values from the least squared means analysis outcomes. The difference between young and elderly subjects was explored using a one-way ANOVA.

healthy subjects [4] = experiment: Example 1: conjunctiva congestion rating; type: in vivo, human
From the text: Conjunctiva Congestion was rated by a trained observer on a scale of 0-3 based on the blood vessels present as follows:
0—None (The white of the eye was not affected)
3—Considerable (The compete white of the eye is red caused by a pattern of bigger vessels. This is associated with complaints.)
as §1

healthy subjects [5] = experiment: Example 2: subjective drug rating and ARCI-49; type: in vivo, human
From the text: The data for Group I and Group II were pooled and submitted to a mixed effects general linear model analysis. Two sets of analyses were done. The first was for the pre-drug conditions. The fixed effect of day and the fixed effect of condition were non-significant for all of the five scale scores, indicating similarity of pre-drug baseline score. A second analysis compared condition, the first dosing day, the last dosing day, the four visits including pre-drug, and the subjects in the analysis of variance.
as §2, §3

CCCCCc1cc(O)c2c(c1)OC(C)(C)[C@@H]1CCC(C)=C[C@@H]21 [delta-9-THC, delta-9-tetrahydrocannabinol]
effect on heart rate (healthy subjects [1]; 0.3 mg dose, Groups I-II): did not differ markedly from that observed with placebo
duration of heart rate increase (healthy subjects [1]; 1.2 mg): 5 min
increase in heart rate relative to placebo (healthy subjects [1]; 1.2 mg, 5 minutes after dosing): approximately 12 bpm
duration of heart rate increase (healthy subjects [1]; 2.4 mg): about 15 minutes
largest effect on heart rate, increase compared to placebo (healthy subjects [1]; 7.2 mg): about 46 bpm
duration of heart rate increase (healthy subjects [1]; 9.6 mg): about 2.0 hours
time of return of heart rate to normal after dosing (healthy subjects [1]; Group III (elderly, 3.6 mg)): 5 min
heart rate increase (healthy subjects [1]; Group III (elderly, 3.6 mg), at 2 minutes): 10 bpm
placebo corrected diastolic and systolic blood pressure (healthy subjects [1]; across the dose levels investigated): no clear dose-relationship
duration of effect on heart rate (healthy subjects [1]; after single dosing): approximately 2 hours
time of maximum effect on heart rate (healthy subjects [1]; after single dosing): 2 to 5 min
placebo corrected heart rate (healthy subjects [1]; between 0.17 and 5 hours post dose): dose related increase
dose with maximum 'disliking' (healthy subjects [2]; Group I): 2.4 mg
dose with maximum psychoactivity ('feel the drug' scores) and highest mean 'liking' scores (healthy subjects [2]; Group I): 0.3 mg
dose with maximum 'disliking' scores and maximum 'feel the drug' scores (healthy subjects [2]; Group II): 7.2 mg
dose with maximum 'liking' scores (healthy subjects [2]; Group II): 3.6 mg
subjective drug ratings, three scales (healthy subjects [2]; Group III, 3.6 mg): difference between placebo and 3.6 mg
ARCI MBG, LSD and Amphetamine Scales (healthy subjects [2]; in vivo): No significant results
Cmax and AUC versus dose ([3]; 7.2 and 9.6 mg doses): less than proportional increase
Cmax and AUC versus dose ([3]; Groups I and II, doses from 0.3-3.6 mg): dose-related increase
Cmax ([3]; male, human, plasma, inhaled, 2.4 mg): 23.6 ng/mL
number of occurrences of slight congestion (healthy subjects [4]; 9.6 mg dose group): 3
conjunctiva congestion (healthy subjects [4]; 0.3 to 7.2 mg doses): no or substantially no conjunctiva congestion
occurrence of slight conjunctiva congestion (healthy subjects [4]; each of the 3.6 and 7.2 mg doses): once
'feel the drug' and 'liking' scores (healthy subjects [5]; 1.2 mg, Day 1): slightly larger than those who received placebo
'disliking' scores (healthy subjects [5]; 1.2 mg, Day 12): approximately the same or slightly higher
'feel the drug' and 'liking' scores (healthy subjects [5]; 1.2 mg, Day 12): diminished
ARCI Morphine Benzedrine Group (MBG) scale (healthy subjects [5]; 3.6 mg, 1 hour post-dose): some MBG effect
'feel the drug', 'liking' and 'disliking' scores versus placebo (healthy subjects [5]; 3.6 mg, Day 1): significantly larger
subjective drug rating scores (healthy subjects [5]; 3.6 mg, Day 19): still much larger than the placebo scores
ARCI Amphetamine Scale (AS) (healthy subjects [5]; Groups I and II pooled): no significant effects for condition
ARCI Benzedrine Group scale, interaction terms (healthy subjects [5]; Groups I and II pooled): significant for the visit and the condition by visit interaction terms
ARCI LSD scale (healthy subjects [5]; Groups I and II pooled): no significance for condition, day, visit, or any of the interaction terms
ARCI PCAG scale, visit and condition times visit interaction (healthy subjects [5]; Groups I and II pooled, p less than 0.001): highly significant
